The values that follow come from US11571423B2, “Small molecule modulators of human sting” (Curadev Pharma Limited, priority 2017, dated 2023).

Structures are written as SMILES. Where two headings read alike, the source gives them in different places. Bounds are passed on as bounds.

One assay deals with hSTING(HAQ) (Homo sapiens, UniProt Q86WV6, G230A/H232R/R293Q/R71H). The assay is described as follows: Luciferase reporter assay in HEK293T-hSTING-Luciferase cells, HAQ polymorph. The assay is classed as cell-based. To be noted: HAQ polymorph of human STING, EC50 range class. An excerpt: (§1) Stable Cell Line Generation • a) Stable STING expressing cells—Stable HEK293T STING-expressing cell lines were generated using plasmids purchased from Invivogen, CA, USA, that contain STING cDNA cloned into the pUNO-1 vector under hEF1-HTLV promoter and containing the Blasticidin selection cassette. The plasmids hSTING(R232), hSTING(H232), hSTING(HAQ) were directly procured from Invivogen while hSTING (AQ) and hSTING (Q) were derived from hSTING(HAQ) and hSTING (R232) plasmids respectively by using a PCR based site directed mutagenesis method. These vectors were individually transfected into HEK293T cells using Lipofectamine (Invitrogen) and transfected cells were selected under Blasticidin selection. These transfected cells were further subjected to clonal selection using the limiting dilution method to obtain clonally pure populations of HEK cells transfected with each of the above mentioned human STING variants. Only those clones were selected in which ligand independent activation of STING was minimal. • b) Stable Luciferase reporter gene expressing cells—Stable HEK293T Luciferase reporter gene expressing cell lines were generated using pCDNA4 plasmids under an IRF-inducible promoter. This promoter is comprised of five tandem interferon-stimulated response elements (ISRE) fused to an ISG54 minimal promoter. This vector was transfected into HEK293T cells using Lipofectamine (Invitrogen) and transfected cells were selected under Zeocin selection. These transfected cells were further subjected to clonal selection using the limiting dilution method to obtain clonally pure populations of HEK cells transfected the Luciferase reporter construct. Only those clones were selected in which ligand independent induction of luciferase was minimal.
(§2) 5×10^5 clonally selected HEK293T-hSTING-Luciferase cells were seeded in 384-well plates in growth medium and stimulated with novel compounds. After 20 hr of stimulation supernatant were removed and secretary reporter gene activity were measured using the Quanti-Luc detection system (Invivogen) on a Spectramax i3X luminometer.
(§3) In the tables below, EC50 value ranges for exemplary compounds are given.
(§4) Single nucleotide polymorphisms of human STING have been described, which can affect the functional potency of compounds that modulate the activity of the STING protein (see Yi et. al., PLoS One, October 2013, 8(10), e77846). The 5 major polymorphisms of human STING are shown in FIG. 1, with their prevalence in human populations indicated.
(§5) The tables below show the potency of selected compounds of the invention against the most common polymorphisms.

The subject of the next assay is IRF pathway. The assay is described as follows: Reporter gene expression assay in THP1-Dual cells, IRF axis (secreted Lucia luciferase). The assay is classed as cell-based, human. Conditions: 20 hr stimulation, EC50 range class, read-out: THP-IRF activity. The procedure:
(§6) THP1-Dual™ cells (Invivogen) were derived from the human THP-1 monocyte cell line by stable integration of two inducible reporter constructs. As a result, THP1-Dual™ cells allow the simultaneous study of the NF-κB pathway, by monitoring the activity of secreted SEAP, and the IRF pathway, by assessing the activity of a secreted luciferase (Lucia). 5×10^5 THP1-Dual™ cells were seeded in 384-well plates in growth medium and stimulated with novel compounds. After 20 hr of stimulation supernatants were removed and reporter proteins were readily measured in the cell culture supernatant using QUANTI-Blue™ (Invivogen), a SEAP detection reagent, and QUANTI-Luc™ (Invivogen), a luciferase detection reagent on a Spectramax i3X luminometer.
(§7) EC50 value ranges for exemplary compounds tested in the above assay are given.
In general terms: Reporter assays use an easily measured gene product as a stand-in for the process of interest.

A further assay deals with hSTING(R232) (Homo sapiens, UniProt Q86WV6, H232R). The assay is described as follows: Luciferase reporter assay in HEK293T-hSTING-Luciferase cells, R232 (wild type) human STING. The assay is classed as cell-based. Conditions: 20 hr stimulation, read-out: R232 human activity (EC50 range). Summed up:
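Clonal HEK293T cells stably expressing STING from a pUNO-1 plasmid plus an ISRE/ISG54-driven secreted luciferase reporter; 5×10^5 cells stimulated with compound for 20 hr. Supernatant luciferase read by luminescence, giving fold-induction over baseline and EC50.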

The test system of a further assay is NF-κB pathway. The assay is described as follows: Reporter gene expression assay in THP1-Dual cells, NFkB axis (secreted SEAP). The assay is classed as cell-based, human. Conditions: 20 hr stimulation, EC50 range class, read-out: THP-NFκB activity. The procedure: as §6, §7
The target in the next assay is hSTING(H232) (Homo sapiens, UniProt Q86WV6). The assay is described as follows: Luciferase reporter assay in HEK293T-hSTING-Luciferase cells, H232/REF polymorph. The assay is classed as cell-based. To be noted: H232/REF polymorph of human STING, EC50 range class.
Source text: as §1, §2, §3, §4, §5

Sequence of hSTING(HAQ) (Q86WV6 whole entry R71H/G230A/H232R/R293Q): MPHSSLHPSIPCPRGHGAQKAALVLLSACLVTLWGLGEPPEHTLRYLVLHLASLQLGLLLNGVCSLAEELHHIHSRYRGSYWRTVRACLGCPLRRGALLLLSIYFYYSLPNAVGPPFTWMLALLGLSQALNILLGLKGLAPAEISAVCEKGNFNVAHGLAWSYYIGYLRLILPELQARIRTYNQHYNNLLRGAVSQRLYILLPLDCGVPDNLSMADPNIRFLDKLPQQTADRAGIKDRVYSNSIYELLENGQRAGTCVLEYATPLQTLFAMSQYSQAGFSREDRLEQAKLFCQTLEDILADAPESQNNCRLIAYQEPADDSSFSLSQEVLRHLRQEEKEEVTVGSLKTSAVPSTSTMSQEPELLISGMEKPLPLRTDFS
Sequence of hSTING(H232) (Q86WV6 whole entry): as the sequence (Q86WV6 whole entry R71H/G230A/H232R/R293Q) above, with H71R, A230G, R232H, Q293R counted along it
Sequence of hSTING(R232) (Q86WV6 whole entry H232R): as the sequence (Q86WV6 whole entry R71H/G230A/H232R/R293Q) above, with H71R, A230G, Q293R counted along it

Take `C[C@H]1c2ccc(C(=O)NCc3c(F)cc(F)cc3F)cc2N(Cc2cc(CO)ccc2F)C(=O)N1C` (stereo in doubt) [Example 268, 1-(2-fluoro-5-(hydroxymethyl)benzyl)-3,4-dimethyl-2-oxo-N-(2,4,6-trifluorobenzyl)-1,2,3,4-tetrahydroquinazoline-7-carboxamide]: the EC50 on hSTING(HAQ) was 1000 to 10000 nM; in the assay on IRF pathway (Homo sapiens) it was 1000 to 10000 nM; at hSTING(R232) it was under 1000 nM; in the assay with NF-κB pathway (Homo sapiens) it was 1000 to 10000 nM; at hSTING(H232), 1000 to 10000 nM.

`Cc1ncc(CN2C(=O)N(C)Cc3ccc(C(=O)NCc4c(F)cc(F)cc4F)cc32)s1` [Example 20, 3-methyl-1-((2-methylthiazol-5-yl)methyl)-2-oxo-N-(2,4,6-trifluorobenzyl)-1,2,3,4-tetrahydroquinazoline-7-carboxamide]: the EC50 on hSTING(HAQ), in the assay with IRF pathway (Homo sapiens), at hSTING(R232), with NF-κB pathway (Homo sapiens) and at hSTING(H232) was 1000 to 10000 nM throughout.

Regarding `Cc1cccc(-c2nc(CN3C(=O)N(C)Cc4ccc(C(=O)NCc5c(F)cc(F)cc5F)cc43)c(C)o2)c1` [Example 38, 3-methyl-1-((5-methyl-2-(m-tolyl)oxazol-4-yl)methyl)-2-oxo-N-(2,4,6-trifluorobenzyl)-1,2,3,4-tetrahydroquinazoline-7-carboxamide], the EC50 on hSTING(HAQ) was 1000 to 10000 nM; with IRF pathway (Homo sapiens), over 10000 nM; on hSTING(R232) it was under 1000 nM; in the assay with NF-κB pathway (Homo sapiens) it was 1000 to 10000 nM; at hSTING(H232) it was 1000 to 10000 nM.

Consider `CN1Cc2ccc(C(=O)NCc3c(F)cc(F)cc3F)cc2N(Cc2c(F)cccc2C#N)C1=O` [Example 39, 1-(2-cyano-6-fluorobenzyl)-3-methyl-2-oxo-N-(2,4,6-trifluorobenzyl)-1,2,3,4-tetrahydroquinazoline-7-carboxamide], for which the EC50 was over 10000 nM at hSTING(HAQ); over 10000 nM in the assay on IRF pathway (Homo sapiens); 1000 to 10000 nM at hSTING(R232); over 10000 nM in the assay on NF-κB pathway (Homo sapiens); over 10000 nM on hSTING(H232).

For the compound `Cc1cc(CN2C(=O)N(C)Cc3ccc(C(=O)NCc4c(F)cc(F)cc4F)cc32)on1` [Example 54, 3-methyl-1-((3-methylisoxazol-5-yl)methyl)-2-oxo-N-(2,4,6-trifluorobenzyl)-1,2,3,4-tetrahydroquinazoline-7-carboxamide], the EC50 on hSTING(HAQ), in the assay on IRF pathway (Homo sapiens), at hSTING(R232), in the assay with NF-κB pathway (Homo sapiens) and on hSTING(H232) was 1000 to 10000 nM in each case.

As to `CC1c2ncc(C(=O)NCc3c(F)cc(F)cc3F)cc2N(Cc2c(F)cccc2Cl)C(=O)N1C` (stereo not drawn) [Example 148, 1-(2-Chloro-6-fluorobenzyl)-3,4-dimethyl-2-oxo-N-(2,4,6-trifluorobenzyl)-1,2,3,4-tetrahydropyrido[3,2-d]pyrimidine-7-carboxamide], the EC50 at hSTING(HAQ) was under 1000 nM; with IRF pathway (Homo sapiens), 1000 to 10000 nM; on hSTING(R232), under 1000 nM; with NF-κB pathway (Homo sapiens), 1000 to 10000 nM; on hSTING(H232) it was under 1000 nM.

Regarding `COc1cccc(F)c1CN1C(=O)N(C)C(C)c2ccc(C(=O)NCc3c(F)cc(F)cc3F)cc21` (stereo not drawn) [Example 153, 1-(2-fluoro-6-methoxybenzyl)-3,4-dimethyl-2-oxo-N-(2,4,6-trifluorobenzyl)-1,2,3,4-tetrahydroquinazoline-7-carboxamide], the EC50 on hSTING(HAQ), with IRF pathway (Homo sapiens), at hSTING(R232), with NF-κB pathway (Homo sapiens) and on hSTING(H232) was under 1000 nM in each case.

`CC1c2ccc(C(=O)NCc3c(F)cc(F)cc3F)cc2N(Cc2cc(C(N)=O)ccc2F)C(=O)N1C` (stereo not drawn) [Example 167, 1-(5-carbamoyl-2-fluorobenzyl)-3,4-dimethyl-2-oxo-N-(2,4,6-trifluorobenzyl)-1,2,3,4-tetrahydroquinazoline-7-carboxamide]: the EC50 is over 10000 nM at hSTING(HAQ); over 10000 nM in the assay with IRF pathway (Homo sapiens); under 1000 nM at hSTING(R232); over 10000 nM in the assay with NF-κB pathway (Homo sapiens); over 10000 nM at hSTING(H232).

On to `CNc1cccc(F)c1CN1C(=O)N(C)C(C)c2ccc(C(=O)NCc3c(F)cc(F)cc3F)cc21` (stereo not drawn) [Example 174, 1-(2-fluoro-6-(methylamino)benzyl)-3,4-dimethyl-2-oxo-N-(2,4,6-trifluorobenzyl)-1,2,3,4-tetrahydroquinazoline-7-carboxamide], for which the EC50 was under 1000 nM at hSTING(HAQ); 1000 to 10000 nM with IRF pathway (Homo sapiens); under 1000 nM on hSTING(R232); 1000 to 10000 nM in the assay with NF-κB pathway (Homo sapiens); under 1000 nM at hSTING(H232).

Take `CC1c2ccc(C(=O)NCc3c(F)cc(F)cc3F)cc2N(Cc2c(F)cccc2N(C)C)C(=O)N1C` (stereo not drawn) [Example 175, 1-(2-(dimethylamino)-6-fluorobenzyl)-3,4-dimethyl-2-oxo-N-(2,4,6-trifluorobenzyl)-1,2,3,4-tetrahydroquinazoline-7-carboxamide]: the EC50 on hSTING(HAQ) is 1000 to 10000 nM; in the assay on IRF pathway (Homo sapiens), over 10000 nM; at hSTING(R232), 1000 to 10000 nM; in the assay on NF-κB pathway (Homo sapiens), over 10000 nM; on hSTING(H232) it was 1000 to 10000 nM.

For `COC(=O)c1ccc(F)c(CN2C(=O)N(C)[C@@H](C)c3ccc(C(=O)NCc4c(F)cc(F)cc4F)cc32)c1Cl` [Example 185, (S)-methyl 2-chloro-3-((3,4-dimethyl-2-oxo-7-((2,4,6-trifluorobenzyl)carbamoyl)-3,4-dihydroquinazolin-1(2H)-yl)methyl)-4-fluorobenzoate], the EC50 on hSTING(HAQ) was under 1000 nM; in the assay with IRF pathway (Homo sapiens) it was 1000 to 10000 nM; on hSTING(R232), under 1000 nM; in the assay on NF-κB pathway (Homo sapiens), 1000 to 10000 nM; on hSTING(H232) it was under 1000 nM.

Take `CC1c2ccc(C(=O)NCc3c(F)cc(F)cc3F)cc2N(Cc2c(F)cccc2Br)C(=O)N1C` (stereo not drawn) [Example 193, 1-(2-bromo-6-fluorobenzyl)-3,4-dimethyl-2-oxo-N-(2,4,6-trifluorobenzyl)-1,2,3,4-tetrahydroquinazoline-7-carboxamide]: the EC50 at hSTING(HAQ), with IRF pathway (Homo sapiens), in the assay on NF-κB pathway (Homo sapiens) and at hSTING(H232) was under 1000 nM each time.

Regarding `CC1c2ccc(C(=O)NCc3c(F)cc(F)cc3F)cc2N(Cc2c(F)cccc2C(F)(F)F)C(=O)N1C` (stereo not drawn) [Example 196, 1-(2-fluoro-6-(trifluoromethyl)benzyl)-3,4-dimethyl-2-oxo-N-(2,4,6-trifluorobenzyl)-1,2,3,4-tetrahydroquinazoline-7-carboxamide], the EC50 on hSTING(HAQ), in the assay on IRF pathway (Homo sapiens), on hSTING(R232), with NF-κB pathway (Homo sapiens) and at hSTING(H232) was under 1000 nM throughout.

In the case of `Cc1cccc(F)c1CN1C(=O)N(C)C(C)c2ccc(C(=O)NCc3c(F)cc(F)cc3F)cc21` (stereo not drawn) [Example 203, 1-(2-fluoro-6-methylbenzyl)-3,4-dimethyl-2-oxo-N-(2,4,6-trifluorobenzyl)-1,2,3,4-tetrahydroquinazoline-7-carboxamide], the EC50 on hSTING(HAQ), in the assay with IRF pathway, on hSTING(R232), with NF-κB pathway and on hSTING(H232) was under 1000 nM in each case.
